In US20240024325A1, “Methods of Managing Cocaine or Other Drug Addictions” (Emory University, priority 2020, published 2024):
“Also recorded” adds a separate entry of the source.

What was measured:
Drosophila melanogaster = test: Cocaine-induced startle response and seizure activity in the Drosophila model; format: in vivo
Description: The percent time out of 45 seconds that each fly spent moving following a 42 cm drop was measured. Male flies exposed to cocaine spent less time moving than flies exposed to untreated food (p=2.13×10^−12). […] Error bars represent standard error.
Drosophila provides an advantageous model system for studies on cocaine consumption. […] In addition, flies develop sensitization to repeated intermittent exposure to cocaine. Startle behavior and the prevalence of seizure activity was measured in male and female flies. Measurements were taken following acute consumption of solid food, solid food supplemented with cocaine, or solid food supplemented with cocaine and ibrutinib. Male flies exposed to cocaine spent less time moving after being subjected to a mechanical startle (FIG. 3A). This is likely due to the occurrence of cocaine-induced seizures, which were scored as stationary periods.

mice = conditions: cited from earlier work

Row | Structure (SMILES) | prevalence of cocaine-induced seizures during startle assay, female flies (Drosophila melanogaster; female flies, cocaine and ibrutinib vs cocaine only, did not reach statistical significance) | percent time spent moving after mechanical startle (startle response) (Drosophila melanogaster; male and female flies, food with cocaine and ibrutinib vs cocaine only, 45 seconds after 42 cm drop, FIG. 3A) | prevalence of cocaine-induced seizures during startle assay, male flies (Drosophila melanogaster; male flies, cocaine and ibrutinib vs cocaine only, FIG. 3B) | binge drinking (mice)
1 | C=CC(=O)N1CCC[C@@H](n2nc(-c3ccc(Oc4ccccc4)cc3)c3c(N)ncnc32)C1 [ibrutinib, (R)-1-(3-(4-amino-3-(4-phenoxyphenyl)-1H-pyrazolo[3,4-d]pyrimidin-1-yl)piperidin-1-yl)prop-2-en-1-one] | Fewer cocaine-induced seizures | increase in the percent of time spent moving; also recorded: spent more time moving than flies that only consumed cocaine | significant decrease in the prevalence of seizures | –
2 | CC1=C(O)C(=O)[C@@H]2O[C@@H]2C1=O [terreic acid] | – | – | – | reduced binge drinking in mice
